Test results: US10765114B2, “4-amino-6-(pyridyl and 2-substitutedphenyl)-picolinates and 6-amino-2-(pyridyl and 2-substitutedphenyl)-pyrimidine-4-carboxylates and their use as herbicides” (Dow AgroSciences LLC, priority 2013, dated 2020)

The compounds below were run on Key Broadleaf Weed and Crop Species (assay: Post-Emergent Test II (Table 5)). Details: Abutilon theophrasti, post-emergence, 336 h, ABUTH: velvetleaf (Abutilon theophrasti), application rate 70 (kg ai/ha; footnote: g ai/ha), read-out: Visual Growth Reduction (%) 14 Days After Application ABUTH.
Assay type: in vivo
Outline: (§1)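 Plants at first or second true-leaf stage, grown 7-21 days in greenhouse, were sprayed post-emergence at 187 L/ha with compounds in acetone/DMSO/water/crop oil/surfactant mixture at the high rate and ½× to 1/16× dilutions. Injury scored visually after 14 days, 0 (none) to 100% (complete kill), versus untreated plants.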

SMILES	pest or weed control at 70 g/ha [%]
COC(=O)c1nc(-c2ccc(C(F)(F)F)nc2OC)cc(N)c1Cl [Compound 37]	75 to 84

Same assay, conditions: Abutilon theophrasti, post-emergence, 336 h, ABUTH: velvetleaf (Abutilon theophrasti), application rate 140 (kg ai/ha; footnote: g ai/ha), read-out: Visual Growth Reduction (%) 14 Days After Application ABUTH

SMILES	pest or weed control at 140 g/ha [%]
COC(=O)c1nc(-c2ccc(C(F)(F)F)nc2OC)cc(N)c1Cl [Compound 37]	75 to 84

Same assay, conditions: Amaranthus retroflexus, post-emergence, 336 h, AMARE: redroot pigweed (Amaranthus retroflexus), application rate 70 (kg ai/ha; footnote: g ai/ha), read-out: Visual Growth Reduction (%) 14 Days After Application AMARE

SMILES	pest or weed control at 70 g/ha [%]
COC(=O)c1nc(-c2ccc(C(F)(F)F)nc2OC)cc(N)c1Cl [Compound 37]	60 to 74

Same assay, conditions: Amaranthus retroflexus, post-emergence, 336 h, AMARE: redroot pigweed (Amaranthus retroflexus), application rate 140 (kg ai/ha; footnote: g ai/ha), read-out: Visual Growth Reduction (%) 14 Days After Application AMARE

SMILES	pest or weed control at 140 g/ha [%]
COC(=O)c1nc(-c2ccc(C(F)(F)F)nc2OC)cc(N)c1Cl [Compound 37]	75 to 84

Same assay, conditions: Brassica napus, post-emergence, 336 h, BRSSS: oilseed rape, canola (Brassica napus), application rate 70 (kg ai/ha; footnote: g ai/ha), read-out: Visual Growth Reduction (%) 14 Days After Application BRSSS

SMILES	pest or weed control at 70 g/ha [%]
COC(=O)c1nc(-c2ccc(C(F)(F)F)nc2OC)cc(N)c1Cl [Compound 37]	0 to 29

Same assay, conditions: Brassica napus, post-emergence, 336 h, BRSSS: oilseed rape, canola (Brassica napus), application rate 140 (kg ai/ha; footnote: g ai/ha), read-out: Visual Growth Reduction (%) 14 Days After Application BRSSS

SMILES	pest or weed control at 140 g/ha [%]
COC(=O)c1nc(-c2ccc(C(F)(F)F)nc2OC)cc(N)c1Cl [Compound 37]	30 to 44

Same assay, conditions: Chenopodium album, post-emergence, 336 h, CHEAL: lambsquarters (Chenopodium album), application rate 70 (kg ai/ha; footnote: g ai/ha), read-out: Visual Growth Reduction (%) 14 Days After Application CHEAL

SMILES	pest or weed control at 70 g/ha [%]
COC(=O)c1nc(-c2ccc(C(F)(F)F)nc2OC)cc(N)c1Cl [Compound 37]	85 to 94

Same assay, conditions: Chenopodium album, post-emergence, 336 h, CHEAL: lambsquarters (Chenopodium album), application rate 140 (kg ai/ha; footnote: g ai/ha), read-out: Visual Growth Reduction (%) 14 Days After Application CHEAL

SMILES	pest or weed control at 140 g/ha [%]
COC(=O)c1nc(-c2ccc(C(F)(F)F)nc2OC)cc(N)c1Cl [Compound 37]	85 to 94

Same assay, conditions: Euphorbia heterophylla, post-emergence, 336 h, EPHHL: wild poinsettia (Euphorbia heterophylla), application rate 70 (kg ai/ha; footnote: g ai/ha), read-out: Visual Growth Reduction (%) 14 Days After Application EPHHL

SMILES	pest or weed control at 70 g/ha [%]
COC(=O)c1nc(-c2ccc(C(F)(F)F)nc2OC)cc(N)c1Cl [Compound 37]	0 to 29

Same assay, conditions: Euphorbia heterophylla, post-emergence, 336 h, EPHHL: wild poinsettia (Euphorbia heterophylla), application rate 140 (kg ai/ha; footnote: g ai/ha), read-out: Visual Growth Reduction (%) 14 Days After Application EPHHL

SMILES	pest or weed control at 140 g/ha [%]
COC(=O)c1nc(-c2ccc(C(F)(F)F)nc2OC)cc(N)c1Cl [Compound 37]	0 to 29

Same assay, conditions: Helianthus annuus, post-emergence, 336 h, HELAN: sunflower (Helianthus annuus), application rate 70 (kg ai/ha; footnote: g ai/ha), read-out: Visual Growth Reduction (%) 14 Days After Application HELAN

SMILES	pest or weed control at 70 g/ha [%]
COC(=O)c1nc(-c2ccc(C(F)(F)F)nc2OC)cc(N)c1Cl [Compound 37]	0 to 29

Same assay, conditions: Helianthus annuus, post-emergence, 336 h, HELAN: sunflower (Helianthus annuus), application rate 140 (kg ai/ha; footnote: g ai/ha), read-out: Visual Growth Reduction (%) 14 Days After Application HELAN

SMILES	pest or weed control at 140 g/ha [%]
COC(=O)c1nc(-c2ccc(C(F)(F)F)nc2OC)cc(N)c1Cl [Compound 37]	60 to 74

Same assay, conditions: Viola tricolor, post-emergence, 336 h, VIOTR: wild pansy (Viola tricolor), application rate 70 (kg ai/ha; footnote: g ai/ha), read-out: Visual Growth Reduction (%) 14 Days After Application VIOTR

SMILES	pest or weed control at 70 g/ha [%]
COC(=O)c1nc(-c2ccc(C(F)(F)F)nc2OC)cc(N)c1Cl [Compound 37]	0 to 29

Same assay, conditions: Viola tricolor, post-emergence, 336 h, VIOTR: wild pansy (Viola tricolor), application rate 140 (kg ai/ha; footnote: g ai/ha), read-out: Visual Growth Reduction (%) 14 Days After Application VIOTR

SMILES	pest or weed control at 140 g/ha [%]
COC(=O)c1nc(-c2ccc(C(F)(F)F)nc2OC)cc(N)c1Cl [Compound 37]	0 to 29

These compounds were tested on Key Grass and Sedge Weeds as well as Grass Crops (assay: Post-Emergent Test II (Table 6)). Details: post-emergence, 336 h, CYPSS, 70 g ai/ha, 14 days after application, read-out: Visual Growth Reduction (%) 14 Days After Application CYPSS.
Assay type: in vivo
Outline: as §1

SMILES	pest or weed control at 70 g/ha [%]
COC(=O)c1nc(-c2ccc(C(F)(F)F)nc2OC)cc(N)c1Cl [Compound 37]	0 to 29

Same assay, conditions: post-emergence, 336 h, CYPSS, 140 g ai/ha, 14 days after application, read-out: Visual Growth Reduction (%) 14 Days After Application CYPSS

SMILES	pest or weed control at 140 g/ha [%]
COC(=O)c1nc(-c2ccc(C(F)(F)F)nc2OC)cc(N)c1Cl [Compound 37]	0 to 29

Same assay, conditions: post-emergence, 336 h, DIGSA: crabgrass (Digitaria sanguinalis), 70 g ai/ha, 14 days after application, read-out: Visual Growth Reduction (%) 14 Days After Application DIGSA

SMILES	pest or weed control at 70 g/ha [%]
COC(=O)c1nc(-c2ccc(C(F)(F)F)nc2OC)cc(N)c1Cl [Compound 37]	0 to 29

Same assay, conditions: post-emergence, 336 h, DIGSA: crabgrass (Digitaria sanguinalis), 140 g ai/ha, 14 days after application, read-out: Visual Growth Reduction (%) 14 Days After Application DIGSA

SMILES	pest or weed control at 140 g/ha [%]
COC(=O)c1nc(-c2ccc(C(F)(F)F)nc2OC)cc(N)c1Cl [Compound 37]	0 to 29

Same assay, conditions: post-emergence, 336 h, ORYSS (crop), 70 g ai/ha, 14 days after application, read-out: Visual Growth Reduction (%) 14 Days After Application ORYSS

SMILES	pest or weed control at 70 g/ha [%]
COC(=O)c1nc(-c2ccc(C(F)(F)F)nc2OC)cc(N)c1Cl [Compound 37]	0 to 29

Same assay, conditions: post-emergence, 336 h, ORYSS (crop), 140 g ai/ha, 14 days after application, read-out: Visual Growth Reduction (%) 14 Days After Application ORYSS

SMILES	pest or weed control at 140 g/ha [%]
COC(=O)c1nc(-c2ccc(C(F)(F)F)nc2OC)cc(N)c1Cl [Compound 37]	0 to 29

Same assay, conditions: post-emergence, 336 h, SETFA: giant foxtail (Setaria faberi), 70 g ai/ha, 14 days after application, read-out: Visual Growth Reduction (%) 14 Days After Application SETFA

SMILES	pest or weed control at 70 g/ha [%]
COC(=O)c1nc(-c2ccc(C(F)(F)F)nc2OC)cc(N)c1Cl [Compound 37]	0 to 29

Same assay, conditions: post-emergence, 336 h, SETFA: giant foxtail (Setaria faberi), 140 g ai/ha, 14 days after application, read-out: Visual Growth Reduction (%) 14 Days After Application SETFA

SMILES	pest or weed control at 140 g/ha [%]
COC(=O)c1nc(-c2ccc(C(F)(F)F)nc2OC)cc(N)c1Cl [Compound 37]	0 to 29

Same assay, conditions: post-emergence, 336 h, SORVU: grain sorghum (Sorghum vulgare), 70 g ai/ha, 14 days after application, read-out: Visual Growth Reduction (%) 14 Days After Application SORVU

SMILES	pest or weed control at 70 g/ha [%]
COC(=O)c1nc(-c2ccc(C(F)(F)F)nc2OC)cc(N)c1Cl [Compound 37]	0 to 29

Same assay, conditions: post-emergence, 336 h, SORVU: grain sorghum (Sorghum vulgare), 140 g ai/ha, 14 days after application, read-out: Visual Growth Reduction (%) 14 Days After Application SORVU

SMILES	pest or weed control at 140 g/ha [%]
COC(=O)c1nc(-c2ccc(C(F)(F)F)nc2OC)cc(N)c1Cl [Compound 37]	0 to 29

Same assay, conditions: post-emergence, 336 h, TRZSS (crop), 70 g ai/ha, 14 days after application, read-out: Visual Growth Reduction (%) 14 Days After Application TRZSS

SMILES	pest or weed control at 70 g/ha [%]
COC(=O)c1nc(-c2ccc(C(F)(F)F)nc2OC)cc(N)c1Cl [Compound 37]	0 to 29

Same assay, conditions: post-emergence, 336 h, TRZSS (crop), 140 g ai/ha, 14 days after application, read-out: Visual Growth Reduction (%) 14 Days After Application TRZSS

SMILES	pest or weed control at 140 g/ha [%]
COC(=O)c1nc(-c2ccc(C(F)(F)F)nc2OC)cc(N)c1Cl [Compound 37]	0 to 29

Same assay, conditions: post-emergence, 336 h, ZEAMX: maize, corn (Zea mays), 70 g ai/ha, 14 days after application, read-out: Visual Growth Reduction (%) 14 Days After Application ZEAMX

SMILES	pest or weed control at 70 g/ha [%]
COC(=O)c1nc(-c2ccc(C(F)(F)F)nc2OC)cc(N)c1Cl [Compound 37]	0 to 29

Same assay, conditions: post-emergence, 336 h, ZEAMX: maize, corn (Zea mays), 140 g ai/ha, 14 days after application, read-out: Visual Growth Reduction (%) 14 Days After Application ZEAMX

SMILES	pest or weed control at 140 g/ha [%]
COC(=O)c1nc(-c2ccc(C(F)(F)F)nc2OC)cc(N)c1Cl [Compound 37]	0 to 29
